Measured values reported in ChEMBL document CHEMBL1156221, “A-ring modifications on the triazafluorenone core structure and their mGluR1 antagonist properties” (Bioorg Med Chem Lett, 2010).

Legend:
[1] = biological target: Metabotropic glutamate receptor 5 (Homo sapiens, UniProt P41594); experiment: Antagonist activity at human mGluR5; type: functional
[2] = Drug level in rat brain at 10 mg/kg, po after 6 hrs; type: ADME, organism-based; design: dose 10 mg/kg, route oral; settings: read-out: Drug uptake
in vivo = settings: rat, brain/plasma, po, 10 mg/kg
Description: Ratio of drug level in brain to plasma in rat at 10 mg/kg, po

[3] = AUC in rat at 10 mg/kg, po by LC/API-MS/MS; type: ADME, organism-based; design: dose 10 mg/kg, route oral; settings: plasma
[4] = biological target: Metabotropic glutamate receptor 1 (Homo sapiens, UniProt Q13255); experiment: Antagonist activity at human mGluR1; type: functional
Metabotropic glutamate receptor 1 (Homo sapiens, UniProt Q13255), sequence (Q13255 whole entry): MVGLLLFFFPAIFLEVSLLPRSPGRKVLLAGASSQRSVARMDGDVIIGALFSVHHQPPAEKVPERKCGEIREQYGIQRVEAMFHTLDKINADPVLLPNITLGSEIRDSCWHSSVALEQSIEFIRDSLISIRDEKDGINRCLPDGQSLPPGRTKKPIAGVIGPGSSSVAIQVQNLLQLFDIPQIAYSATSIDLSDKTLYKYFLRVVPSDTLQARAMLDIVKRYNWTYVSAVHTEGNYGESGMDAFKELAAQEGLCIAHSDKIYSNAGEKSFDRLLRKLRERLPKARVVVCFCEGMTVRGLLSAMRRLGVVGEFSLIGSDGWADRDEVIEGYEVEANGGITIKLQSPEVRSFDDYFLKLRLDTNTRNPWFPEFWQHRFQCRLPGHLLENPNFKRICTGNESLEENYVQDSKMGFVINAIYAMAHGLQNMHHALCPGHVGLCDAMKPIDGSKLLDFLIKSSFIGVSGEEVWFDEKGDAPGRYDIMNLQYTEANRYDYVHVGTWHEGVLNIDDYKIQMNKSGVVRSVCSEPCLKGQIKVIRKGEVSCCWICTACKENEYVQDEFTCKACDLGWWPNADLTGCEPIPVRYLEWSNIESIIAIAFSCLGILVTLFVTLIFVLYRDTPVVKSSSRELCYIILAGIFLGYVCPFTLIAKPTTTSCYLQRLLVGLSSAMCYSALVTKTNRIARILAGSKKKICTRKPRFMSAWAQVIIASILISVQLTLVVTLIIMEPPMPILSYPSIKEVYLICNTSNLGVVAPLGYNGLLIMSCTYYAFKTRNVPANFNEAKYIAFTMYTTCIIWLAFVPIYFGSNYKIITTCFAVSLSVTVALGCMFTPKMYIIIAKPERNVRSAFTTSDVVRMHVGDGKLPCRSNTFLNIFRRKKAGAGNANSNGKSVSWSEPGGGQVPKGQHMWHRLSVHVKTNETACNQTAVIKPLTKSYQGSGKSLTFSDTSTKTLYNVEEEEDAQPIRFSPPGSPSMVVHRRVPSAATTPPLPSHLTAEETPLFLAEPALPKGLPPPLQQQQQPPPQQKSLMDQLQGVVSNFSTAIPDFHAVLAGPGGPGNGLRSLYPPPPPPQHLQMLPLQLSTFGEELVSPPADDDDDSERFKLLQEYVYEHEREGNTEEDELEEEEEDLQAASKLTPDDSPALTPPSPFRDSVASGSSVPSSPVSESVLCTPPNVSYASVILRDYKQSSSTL

[5] = biological target: Metabotropic glutamate receptor 1 (Rattus norvegicus); experiment: Antagonist activity at rat mGluR1
[6] = biological target: Metabotropic glutamate receptor 1 (Rattus norvegicus, UniProt P23385); experiment: Antagonist activity at rat mGluR1; type: functional
Metabotropic glutamate receptor 1 (Rattus norvegicus, UniProt P23385), sequence (P23385 whole entry, looked up): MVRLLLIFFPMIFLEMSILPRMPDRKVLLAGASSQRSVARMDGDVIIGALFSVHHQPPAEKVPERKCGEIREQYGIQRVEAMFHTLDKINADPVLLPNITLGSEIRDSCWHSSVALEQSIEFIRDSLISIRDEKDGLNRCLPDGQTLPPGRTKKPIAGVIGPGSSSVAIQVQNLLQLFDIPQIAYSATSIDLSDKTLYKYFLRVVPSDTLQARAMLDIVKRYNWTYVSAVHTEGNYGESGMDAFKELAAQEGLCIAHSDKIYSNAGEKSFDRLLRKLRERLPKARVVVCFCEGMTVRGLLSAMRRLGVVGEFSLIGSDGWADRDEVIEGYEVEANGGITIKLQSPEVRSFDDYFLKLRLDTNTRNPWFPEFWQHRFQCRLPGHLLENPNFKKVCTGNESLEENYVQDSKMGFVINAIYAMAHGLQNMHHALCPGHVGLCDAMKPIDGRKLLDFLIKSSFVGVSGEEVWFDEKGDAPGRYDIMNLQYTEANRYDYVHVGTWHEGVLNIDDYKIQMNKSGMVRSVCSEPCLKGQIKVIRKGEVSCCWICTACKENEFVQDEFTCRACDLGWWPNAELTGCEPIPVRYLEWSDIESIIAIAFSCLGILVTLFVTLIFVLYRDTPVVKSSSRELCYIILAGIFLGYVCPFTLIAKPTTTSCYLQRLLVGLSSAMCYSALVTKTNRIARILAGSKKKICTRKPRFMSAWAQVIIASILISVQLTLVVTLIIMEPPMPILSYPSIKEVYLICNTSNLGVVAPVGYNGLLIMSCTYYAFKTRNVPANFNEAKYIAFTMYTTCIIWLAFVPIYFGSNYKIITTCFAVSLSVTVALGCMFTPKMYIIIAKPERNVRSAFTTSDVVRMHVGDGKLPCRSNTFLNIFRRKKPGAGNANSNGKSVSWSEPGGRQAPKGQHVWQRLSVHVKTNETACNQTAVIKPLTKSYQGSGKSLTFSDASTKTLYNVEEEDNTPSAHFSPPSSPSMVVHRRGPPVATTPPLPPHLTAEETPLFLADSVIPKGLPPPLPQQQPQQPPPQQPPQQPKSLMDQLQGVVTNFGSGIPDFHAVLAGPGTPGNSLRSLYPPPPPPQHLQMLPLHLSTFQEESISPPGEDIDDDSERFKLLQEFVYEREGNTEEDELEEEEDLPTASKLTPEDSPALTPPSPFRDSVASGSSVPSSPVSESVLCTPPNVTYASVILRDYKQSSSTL

Metabotropic glutamate receptor 5, sequence (P41594 whole entry): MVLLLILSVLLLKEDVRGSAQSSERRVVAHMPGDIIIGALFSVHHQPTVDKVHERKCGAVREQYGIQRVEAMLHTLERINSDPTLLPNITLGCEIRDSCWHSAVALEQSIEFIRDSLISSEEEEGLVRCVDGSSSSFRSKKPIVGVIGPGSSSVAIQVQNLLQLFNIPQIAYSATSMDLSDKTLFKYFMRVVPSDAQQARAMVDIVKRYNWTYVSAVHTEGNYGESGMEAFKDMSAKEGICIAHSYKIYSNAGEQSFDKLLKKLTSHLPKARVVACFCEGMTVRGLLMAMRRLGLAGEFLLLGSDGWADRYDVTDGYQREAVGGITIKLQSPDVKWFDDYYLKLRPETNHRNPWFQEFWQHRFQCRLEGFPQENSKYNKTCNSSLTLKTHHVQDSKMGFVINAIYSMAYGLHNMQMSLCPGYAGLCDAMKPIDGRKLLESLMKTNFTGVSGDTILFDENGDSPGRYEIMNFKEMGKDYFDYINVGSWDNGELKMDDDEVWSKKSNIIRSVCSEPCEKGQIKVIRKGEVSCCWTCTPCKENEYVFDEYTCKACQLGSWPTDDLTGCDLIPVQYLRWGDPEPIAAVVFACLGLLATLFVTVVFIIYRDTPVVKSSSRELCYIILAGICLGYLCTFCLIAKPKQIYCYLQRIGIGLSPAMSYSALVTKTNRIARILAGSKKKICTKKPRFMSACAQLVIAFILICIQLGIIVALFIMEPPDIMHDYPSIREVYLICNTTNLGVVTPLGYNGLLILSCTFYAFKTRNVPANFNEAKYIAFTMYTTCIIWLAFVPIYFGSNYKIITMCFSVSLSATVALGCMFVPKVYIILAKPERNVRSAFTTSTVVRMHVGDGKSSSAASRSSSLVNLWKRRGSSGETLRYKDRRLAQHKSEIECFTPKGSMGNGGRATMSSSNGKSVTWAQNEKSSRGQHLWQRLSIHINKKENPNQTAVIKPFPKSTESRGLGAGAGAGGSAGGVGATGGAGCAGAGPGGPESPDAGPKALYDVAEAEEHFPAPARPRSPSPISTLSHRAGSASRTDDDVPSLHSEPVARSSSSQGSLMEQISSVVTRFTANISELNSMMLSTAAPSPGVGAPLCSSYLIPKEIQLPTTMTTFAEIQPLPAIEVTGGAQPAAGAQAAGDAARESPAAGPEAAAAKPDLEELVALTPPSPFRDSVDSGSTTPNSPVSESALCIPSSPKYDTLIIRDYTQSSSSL

IC50 [1]	concentration at 6 h [2]	Kp (in vivo)	AUC [3]	IC50 [4]	Ki [5]	Ki [6]	SMILES
> 3000 nM	100 ng/g	0.9	965 ng·h/mL	–	–	–	Cc1ccc(-n2cnc3c(sc4nc(N)nc(N)c43)c2=O)cc1
> 3000 nM	–	–	–	3.1 nM	–	–	Cc1ccc(-n2cnc3c(sc4nc(S)nc(N)c43)c2=O)cc1
> 3000 nM	–	–	–	> 1000 nM	–	–	Cc1ccc(-n2cnc3c(sc4nc(-n5cccc5)nc(N)c43)c2=O)cc1
> 3000 nM	–	–	–	188 nM	–	–	COc1ccc(-n2cnc3c(sc4nc(C)nc(N)c43)c2=O)cc1
> 3000 nM	–	–	–	11 nM	–	–	Cc1nc(N)c2c(n1)sc1c(=O)n(-c3ccc(Cl)cc3)cnc12
> 3000 nM	–	–	–	> 1000 nM	–	–	Cc1ccc(-n2cnc3c(sc4nc(C(F)(F)F)nc(N)c43)c2=O)cc1
> 3000 nM	–	–	–	> 1000 nM	–	–	Cc1ccc(-n2cnc3c(sc4[nH]c(=O)nc(N)c43)c2=O)cc1
> 3000 nM	–	–	–	–	–	–	COc1ccc(-n2cnc3c(sc4nccc(N(C)C)c43)c2=O)cc1
> 3000 nM	–	–	–	> 1000 nM	–	–	CNc1nc(N)c2c(n1)sc1c(=O)n(-c3ccc(C)cc3)cnc12
> 3000 nM	–	–	–	16 nM	–	–	Cc1nc(N)c2c(n1)sc1c(=O)n(-c3ccccc3)cnc12
> 3000 nM	–	–	–	68 nM	–	–	Cc1nc(N)c2c(n1)sc1c(=O)n(-c3ccc(F)cc3)cnc12
> 3000 nM	29 ng/g	0.2	2110 ng·h/mL	27 nM	115 nM	115 nM	Cc1ccc(-n2cnc3c(sc4nc(C)nc(N)c43)c2=O)cc1
> 3000 nM	–	–	–	326 nM	–	–	Cc1ccc(-n2cnc3c(sc4nc(C5CC5)nc(N)c43)c2=O)cc1
